# Results as given in patent publication US10294202B2, “Pyrrolidinones as herbicides” (FMC Corporation, priority 2013, dated 2019).
# Legend:
# pigweed = test: Test A pre-/postemergence herbicide test; type: in vivo, Amaranthus retroflexus; details: for Pigweed plant response rating: Preemergence, visual rating on 0 to 100 scale (0 no effect, 100 complete control)
# How it was run: (§1)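 Seeds in loam–sand blend received preemergence directed soil spray; separately, plants 2–10 cm at one- to two-leaf stage received postemergence spray, both with test chemicals in non-phytotoxic solvent with surfactant. After ~10 days in greenhouse, injury rated visually against untreated controls, 0 (no effect) to 100 (complete control).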
# morningglory = test: Test A pre-/postemergence herbicide test; type: in vivo, Ipomoea spp.; details: for Morningglory plant response rating: Preemergence, visual rating on 0 to 100 scale (0 no effect, 100 complete control)
# How it was run: as §1
# crabgrass, large = test: Test A pre-/postemergence herbicide test; type: in vivo, Digitaria sanguinalis; details: for Crabgrass, Large plant response rating: Preemergence, visual rating on 0 to 100 scale (0 no effect, 100 complete control)
# How it was run: as §1
# sedge, umbrella = test: Test C flooded paddy test; type: in vivo, Cyperus difformis; details: Flood
# Text: (§2) Plant species in the flooded paddy test consisted of rice (Oryza sativa), sedge, umbrella (small-flower umbrella sedge, Cyperus difformis), ducksalad (Heteranthera limosa), and barnyardgrass (Echinochloa crus-galli) grown to the 2-leaf stage for testing. At time of treatment, test pots were flooded to 3 cm above the soil surface, treated by application of test compounds directly to the paddy water, and then maintained at that water depth for the duration of the test. Treated plants and controls were maintained in a greenhouse for 13 to 15 days, after which time all species were compared to controls and visually evaluated. Plant response ratings, summarized in Table C, are based on a scale of 0 to 100 where 0 is no effect and 100 is complete control. A dash (-) response means no test result.
# ducksalad = test: Test C flooded paddy test; type: in vivo, Heteranthera limosa; details: Flood
# Text: as §2
# rice = test: Test C flooded paddy test; type: in vivo, Oryza sativa; details: Flood
# Text: as §2
# corn = test: Test A pre-/postemergence herbicide test; type: in vivo, Zea mays; details: for Corn plant response rating: Preemergence, visual rating on 0 to 100 scale (0 no effect, 100 complete control)
# How it was run: as §1
# velvetleaf = test: Test A pre-/postemergence herbicide test; type: in vivo, Abutilon theophrasti; details: for Velvetleaf plant response rating: Preemergence, visual rating on 0 to 100 scale (0 no effect, 100 complete control)
# How it was run: as §1
# barnyardgrass [1] = test: Test C flooded paddy test; type: in vivo, Echinochloa crus-galli; details: Flood
# Text: as §2
# giant foxtail = test: Test A pre-/postemergence herbicide test; type: in vivo, Setaria faberii; details: for Foxtail, Giant plant response rating: Preemergence, visual rating on 0 to 100 scale (0 no effect, 100 complete control)
# How it was run: as §1
# wheat = test: Test A pre-/postemergence herbicide test; type: in vivo, Triticum aestivum; details: for Wheat plant response rating: Preemergence, visual rating on 0 to 100 scale (0 no effect, 100 complete control)
# How it was run: as §1
# barnyardgrass [2] = test: Test A pre-/postemergence herbicide test; type: in vivo, Echinochloa crus-galli; details: for Barnyardgrass plant response rating: Preemergence, visual rating on 0 to 100 scale (0 no effect, 100 complete control)
# How it was run: as §1
# [3] = Postemergence, 125 g ai/ha, 0 to 100 scale, 0 no effect, 100 complete control
# [4] = Postemergence, 500 g ai/ha, 0 to 100 scale (0 no effect, 100 complete control)
# [5] = preemergence, 500 g ai/ha, 0 to 100 scale
# [6] = 31 g ai/ha, scale of 0 to 100 where 0 is no effect and 100 is complete control, 13 to 15 days
# [7] = 62 g ai/ha, scale of 0 to 100 where 0 is no effect and 100 is complete control, 13 to 15 days
# [8] = 125 g ai/ha, scale of 0 to 100 where 0 is no effect and 100 is complete control, 13 to 15 days
# [9] = preemergence, 500 g ai/ha, 0 to 100 scale (0 no effect, 100 complete control)
compound,measurement,setting,value
CC1NC(=O)C(C(=O)Nc2ccccc2F)C1c1ccc(F)c(F)c1 (mixture of isomers) [Compound 7],"Plant response rating, Pigweed",pigweed; [3],0
same,"Plant response rating, Pigweed",pigweed; [4],0
same,Pigweed plant response rating,pigweed; 125 g ai/ha,0
same,"Plant response rating, Pigweed",pigweed; [5],0
same,"Plant response rating, Morningglory",morningglory; [3],0
same,"Plant response rating, Morningglory",morningglory; [4],0
same,Morningglory plant response rating,morningglory; 125 g ai/ha,0
same,"Plant response rating, Morningglory",morningglory; [5],0
same,"Plant response rating, Crabgrass, Large","crabgrass, large; [3]",30
same,"Plant response rating, Crabgrass, Large","crabgrass, large; [4]",80
same,"Crabgrass, Large plant response rating","crabgrass, large; 125 g ai/ha",80
same,"Plant response rating, Crabgrass, Large","crabgrass, large; [5]",90
same,"Plant response rating, Sedge, Umbrella","sedge, umbrella; [6]",0
same,"Plant response rating, Sedge, Umbrella","sedge, umbrella; [7]",0
same,"Plant response rating, Sedge, Umbrella","sedge, umbrella; [8]",0
same,"Plant response rating, Sedge, Umbrella","sedge, umbrella; 250 g ai/ha, scale 0 to 100",0
same,"Plant response rating, Ducksalad",ducksalad; [6],0
same,"Plant response rating, Ducksalad",ducksalad; [7],0
same,"Plant response rating, Ducksalad",ducksalad; [8],0
same,"Plant response rating, Ducksalad","ducksalad; 250 g ai/ha, scale 0 to 100",0
same,"Plant response rating, Rice",rice; [6],0
same,"Plant response rating, Rice",rice; [7],0
same,"Plant response rating, Rice",rice; [8],0
same,"Plant response rating, Rice","rice; 250 g ai/ha, scale 0 to 100",0
same,"Plant response rating, Corn",corn; [3],0
same,"Plant response rating, Corn",corn; [4],0
same,Corn plant response rating,corn; 125 g ai/ha,0
same,"Plant response rating, Corn",corn; [5],0
same,"Plant response rating, Velvetleaf",velvetleaf; [3],0
same,"Plant response rating, Velvetleaf",velvetleaf; [4],0
same,Velvetleaf plant response rating,velvetleaf; 125 g ai/ha,0
same,"Plant response rating, Velvetleaf",velvetleaf; [5],0
same,"Plant response rating, Barnyardgrass",barnyardgrass [1]; [6],0
same,"Plant response rating, Barnyardgrass",barnyardgrass [1]; [7],0
same,"Plant response rating, Barnyardgrass",barnyardgrass [1]; [8],0
same,"Plant response rating, Barnyardgrass","barnyardgrass [1]; 250 g ai/ha, scale 0 to 100",0
same,"Plant response rating, Foxtail, Giant",giant foxtail; [3],0
same,"Plant response rating, Foxtail, Giant",giant foxtail; [4],50
same,"Foxtail, Giant plant response rating",giant foxtail; 125 g ai/ha,70
same,"Plant response rating, Foxtail, Giant",giant foxtail; [5],90
same,"Plant response rating, Wheat",wheat; [3],0
same,"Plant response rating, Wheat",wheat; [4],0
same,Wheat plant response rating,wheat; 125 g ai/ha,0
same,"Plant response rating, Wheat",wheat; [5],0
same,"Plant response rating, Barnyardgrass",barnyardgrass [2]; [3],20
same,"Plant response rating, Barnyardgrass",barnyardgrass [2]; [4],70
same,Barnyardgrass plant response rating,barnyardgrass [2]; 125 g ai/ha,20
same,"Plant response rating, Barnyardgrass",barnyardgrass [2]; [9],80
CC1NC(=O)C(C(=O)Nc2ccccc2F)C1c1ccc(F)c(F)c1 (mixture of isomers) [Compound 8],"Plant response rating, Pigweed",pigweed; [3],0
same,"Plant response rating, Pigweed",pigweed; [4],0
same,Pigweed plant response rating,pigweed; 125 g ai/ha,0
same,"Plant response rating, Pigweed",pigweed; [5],0
same,"Plant response rating, Morningglory",morningglory; [3],0
same,"Plant response rating, Morningglory",morningglory; [4],0
same,Morningglory plant response rating,morningglory; 125 g ai/ha,0
same,"Plant response rating, Morningglory",morningglory; [5],0
same,"Plant response rating, Crabgrass, Large","crabgrass, large; [3]",60
same,"Plant response rating, Crabgrass, Large","crabgrass, large; [4]",70
same,"Crabgrass, Large plant response rating","crabgrass, large; 125 g ai/ha",80
same,"Plant response rating, Crabgrass, Large","crabgrass, large; [5]",90
same,"Plant response rating, Sedge, Umbrella","sedge, umbrella; [6]",0
same,"Plant response rating, Sedge, Umbrella","sedge, umbrella; [7]",0
same,"Plant response rating, Sedge, Umbrella","sedge, umbrella; [8]",0
same,"Plant response rating, Sedge, Umbrella","sedge, umbrella; 250 g ai/ha, scale 0 to 100",0
same,"Plant response rating, Ducksalad",ducksalad; [6],0
same,"Plant response rating, Ducksalad",ducksalad; [7],0
same,"Plant response rating, Ducksalad",ducksalad; [8],0
same,"Plant response rating, Ducksalad","ducksalad; 250 g ai/ha, scale 0 to 100",0
same,"Plant response rating, Rice",rice; [6],0
same,"Plant response rating, Rice",rice; [7],0
same,"Plant response rating, Rice",rice; [8],0
same,"Plant response rating, Rice","rice; 250 g ai/ha, scale 0 to 100",0
same,"Plant response rating, Corn",corn; [3],0
same,"Plant response rating, Corn",corn; [4],0
same,Corn plant response rating,corn; 125 g ai/ha,0
same,"Plant response rating, Corn",corn; [5],20
same,"Plant response rating, Velvetleaf",velvetleaf; [3],0
same,"Plant response rating, Velvetleaf",velvetleaf; [4],0
same,Velvetleaf plant response rating,velvetleaf; 125 g ai/ha,0
same,"Plant response rating, Velvetleaf",velvetleaf; [5],0
same,"Plant response rating, Barnyardgrass",barnyardgrass [1]; [6],0
same,"Plant response rating, Barnyardgrass",barnyardgrass [1]; [7],0
same,"Plant response rating, Barnyardgrass",barnyardgrass [1]; [8],0
same,"Plant response rating, Barnyardgrass","barnyardgrass [1]; 250 g ai/ha, scale 0 to 100",0
same,"Plant response rating, Foxtail, Giant",giant foxtail; [3],0
same,"Plant response rating, Foxtail, Giant",giant foxtail; [4],50
same,"Foxtail, Giant plant response rating",giant foxtail; 125 g ai/ha,60
same,"Plant response rating, Foxtail, Giant",giant foxtail; [5],90
same,"Plant response rating, Wheat",wheat; [3],0
same,"Plant response rating, Wheat",wheat; [4],0
same,Wheat plant response rating,wheat; 125 g ai/ha,0
same,"Plant response rating, Wheat",wheat; [5],0
same,"Plant response rating, Barnyardgrass",barnyardgrass [2]; [3],20
same,"Plant response rating, Barnyardgrass",barnyardgrass [2]; [4],60
same,Barnyardgrass plant response rating,barnyardgrass [2]; 125 g ai/ha,20
same,"Plant response rating, Barnyardgrass",barnyardgrass [2]; [9],60
CC1NC(=O)C(C(=O)Nc2ccccc2C(F)(F)F)C1c1ccc(F)c(F)c1 (mixture of isomers) [Compound 10],"Plant response rating, Pigweed",pigweed; [3],0
same,"Plant response rating, Pigweed",pigweed; [4],0
same,Pigweed plant response rating,pigweed; 125 g ai/ha,0
same,"Plant response rating, Pigweed",pigweed; [5],0
same,"Plant response rating, Morningglory",morningglory; [3],0
same,"Plant response rating, Morningglory",morningglory; [4],0
same,Morningglory plant response rating,morningglory; 125 g ai/ha,0
same,"Plant response rating, Morningglory",morningglory; [5],0
same,"Plant response rating, Crabgrass, Large","crabgrass, large; [3]",20
same,"Plant response rating, Crabgrass, Large","crabgrass, large; [4]",60
same,"Crabgrass, Large plant response rating","crabgrass, large; 125 g ai/ha",90
same,"Plant response rating, Crabgrass, Large","crabgrass, large; [5]",90
same,"Plant response rating, Sedge, Umbrella","sedge, umbrella; [6]",0
same,"Plant response rating, Sedge, Umbrella","sedge, umbrella; [7]",0
same,"Plant response rating, Sedge, Umbrella","sedge, umbrella; [8]",0
same,"Plant response rating, Sedge, Umbrella","sedge, umbrella; 250 g ai/ha, scale 0 to 100",0
same,"Plant response rating, Ducksalad",ducksalad; [6],0
same,"Plant response rating, Ducksalad",ducksalad; [7],0
same,"Plant response rating, Ducksalad",ducksalad; [8],0
same,"Plant response rating, Ducksalad","ducksalad; 250 g ai/ha, scale 0 to 100",0
same,"Plant response rating, Rice",rice; [6],0
same,"Plant response rating, Rice",rice; [7],0
same,"Plant response rating, Rice",rice; [8],0
same,"Plant response rating, Rice","rice; 250 g ai/ha, scale 0 to 100",0
same,"Plant response rating, Corn",corn; [3],0
same,"Plant response rating, Corn",corn; [4],0
same,Corn plant response rating,corn; 125 g ai/ha,0
same,"Plant response rating, Corn",corn; [5],0
same,"Plant response rating, Velvetleaf",velvetleaf; [3],0
same,"Plant response rating, Velvetleaf",velvetleaf; [4],0
same,Velvetleaf plant response rating,velvetleaf; 125 g ai/ha,0
same,"Plant response rating, Velvetleaf",velvetleaf; [5],0
same,"Plant response rating, Barnyardgrass",barnyardgrass [1]; [6],0
same,"Plant response rating, Barnyardgrass",barnyardgrass [1]; [7],0
same,"Plant response rating, Barnyardgrass",barnyardgrass [1]; [8],0
same,"Plant response rating, Barnyardgrass","barnyardgrass [1]; 250 g ai/ha, scale 0 to 100",0
same,"Plant response rating, Foxtail, Giant",giant foxtail; [3],0
same,"Plant response rating, Foxtail, Giant",giant foxtail; [4],30
same,"Foxtail, Giant plant response rating",giant foxtail; 125 g ai/ha,60
same,"Plant response rating, Foxtail, Giant",giant foxtail; [5],90
same,"Plant response rating, Wheat",wheat; [3],0
same,"Plant response rating, Wheat",wheat; [4],0
same,Wheat plant response rating,wheat; 125 g ai/ha,0
same,"Plant response rating, Wheat",wheat; [5],0
same,"Plant response rating, Barnyardgrass",barnyardgrass [2]; [3],0
same,"Plant response rating, Barnyardgrass",barnyardgrass [2]; [4],40
same,Barnyardgrass plant response rating,barnyardgrass [2]; 125 g ai/ha,0
same,"Plant response rating, Barnyardgrass",barnyardgrass [2]; [9],40
